Patent US20090253634A1, “Methods and Compositions for the Treatment of Gastrointestinal Disorders” (MICROBIA, INC., priority 2005, published 2009)
Bridge positions count the residues as written; N and C are the ends. Peptide text beside a SMILES is read from it.

Key:
intestinal GC-C receptor = biological target: T1, intestinal GC-C receptor (Homo sapiens, UniProt P25092); assay: GC-C receptor activity assay (cyclic GMP) in T84 cells; type: cell-based; conditions: chemically synthesized peptides, cyclic GMP by EIA
T1 construct: monolayers of T84 cells in 24-well plates; host or cells: T84 human colon carcinoma cells
T1 sequence (P25092 24-1073): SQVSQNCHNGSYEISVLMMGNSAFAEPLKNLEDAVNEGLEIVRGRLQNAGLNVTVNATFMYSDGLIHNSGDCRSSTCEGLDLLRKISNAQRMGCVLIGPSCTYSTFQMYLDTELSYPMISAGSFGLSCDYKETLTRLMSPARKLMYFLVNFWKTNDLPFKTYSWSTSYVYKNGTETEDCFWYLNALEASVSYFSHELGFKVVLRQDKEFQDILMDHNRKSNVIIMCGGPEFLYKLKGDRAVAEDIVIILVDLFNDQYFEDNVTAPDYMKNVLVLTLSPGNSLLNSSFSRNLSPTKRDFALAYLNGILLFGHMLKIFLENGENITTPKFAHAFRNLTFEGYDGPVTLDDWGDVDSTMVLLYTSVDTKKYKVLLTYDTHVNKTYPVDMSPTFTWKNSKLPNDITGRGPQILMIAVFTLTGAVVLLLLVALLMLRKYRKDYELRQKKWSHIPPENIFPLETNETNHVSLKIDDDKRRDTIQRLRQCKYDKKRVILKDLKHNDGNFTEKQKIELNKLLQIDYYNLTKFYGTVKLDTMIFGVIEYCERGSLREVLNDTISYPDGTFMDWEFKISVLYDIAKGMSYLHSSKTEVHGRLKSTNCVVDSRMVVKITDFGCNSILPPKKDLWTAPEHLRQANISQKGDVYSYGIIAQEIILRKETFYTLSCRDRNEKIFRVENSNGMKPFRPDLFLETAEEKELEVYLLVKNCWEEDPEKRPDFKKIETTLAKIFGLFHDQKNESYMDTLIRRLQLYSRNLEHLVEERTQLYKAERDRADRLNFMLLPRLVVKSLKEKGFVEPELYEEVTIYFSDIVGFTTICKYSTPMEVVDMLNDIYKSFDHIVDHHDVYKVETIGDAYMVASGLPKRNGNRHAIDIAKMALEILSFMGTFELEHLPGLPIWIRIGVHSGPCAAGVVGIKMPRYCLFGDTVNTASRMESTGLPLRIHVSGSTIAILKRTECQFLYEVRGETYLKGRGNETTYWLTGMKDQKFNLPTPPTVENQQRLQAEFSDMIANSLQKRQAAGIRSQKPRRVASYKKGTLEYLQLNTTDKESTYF
Method: The ability of SEQ ID NO:5, SEQ ID NO:4, SEQ ID NO:3, and SEQ ID NO:6 to activate the intestinal GC-C receptor was assessed in an assay employing the T84 human colon carcinoma cell line (American Type Culture Collection (Bethesda, Md.)). For the assays cells were grown to confluency in 24-well culture plates with a 1:1 mixture of Ham's F12 medium and Dulbecco's modified Eagle's medium (DMEM), supplemented with 5% fetal calf serum and were used at between passages 54 and 60.
Briefly, monolayers of T84 cells in 24-well plates were washed twice with 1 ml/well DMEM, then incubated at 37° C. for 10 min with 0.45 ml DMEM containing 1 mM isobutylmethylxanthine (IBMX), a cyclic nucleotide phosphodiesterase inhibitor, Test peptides (50 μl) were then added and incubated for 30 minutes at 37° C. The media was aspirated and the reaction was then terminated by the addition of ice cold 0.5 ml of 0.1N HCl. The samples were held on ice for 20 minutes and then evaporated to dryness using a heat gun or vacuum centrifugation.

intestinal secretion = assay: suckling mouse model of intestinal secretion (SuMi assay); type: in vivo, suckling mice; conditions: dose response; wild-type ST purchased from TDT; FIG. 5a, 5b
Method: In this model a test compound is administered to suckling mice that are between 7 and 9 days old. After the mice are sacrificed, the gastrointestinal tract from the stomach to the cecum is dissected (“guts”). The remains (“carcass”) as well as the guts are weighed and the ratio of guts to carcass weight is calculated. If the ratio is above 0.09, one can conclude that the test compound increases intestinal secretion. […] The effect of Zelnorm® was also studied.

[1] = system: intestinal transit after abdominal surgery; assay: rat model of postoperative ileus; type: in vivo, CD rats; conditions: oral 10 μg/kg, 20 minutes after charcoal meal
Method: Female CD rats were used to test the effect of SEQ ID NO:3 on delayed transit induced by abdominal surgery and manual manipulation of the small intestine. Groups of at least nine rats underwent abdominal surgery under isoflurane anesthesia. Surgery consisted of laparotomy and 5 minutes of gentle manual intestinal massage. Following recovery from anesthesia, rats were dosed orally with either 10 μg/kg SEQ ID NO:3 or vehicle (20 mM Tris) in a volume of 300 μl. 1 hour after dosing, intestinal transit rate was measured. Animals were again dosed with 300 μl of the test article followed immediately by 500 μl of a charcoal meal (10% charcoal, 10% gum arabic in water). To calculate the distance of the small intestine traveled by the charcoal front, after 20 minutes, the total length of the intestine as well as the distance traveled from the stomach to the charcoal front were measured for each animal. Animals dosed with 10 μg/kg SEQ ID NO:3 experienced an increase in transit following abdominal surgery compared to animals dosed with vehicle alone (FIG. 16). Charcoal transit in SEQ ID NO:3 dosed animals was measured at 37.3+3.0% (mean±SEM) of the small intestine compared with vehicle at 24.7+1.4% (mean±SEM) of the small intestine.

chymotrypsin = biological target: T2, chymotrypsin (Bos taurus, UniProt P00766); assay: in vitro proteolytic stability: chymotrypsin; type: in vitro ADME, bovine; conditions: 37° C., up to 24 h
T2 construct: purchased Sigma-Aldrich C6423; host or cells: bovine pancreas
Method: (§1) All samples were analyzed by LC/MS
Samples were returned to the 37° C. water bath.

[2] = system: visceromotor response to colorectal distension; assay: water avoidance stress-induced hyperalgesia model and basal visceral nociception; type: in vivo, Wistar rats
Method: The effect of SEQ ID NO:3 on basal visceral nociception in a model of water avoidance stress-induced visceral hyperalgesia in adult male Wistar rats was tested. The stress involved confining rats to a platform surrounded by water for a period of 1 hour and then measuring their visceromotor response to colonic distension using electromyography (EMG).
Electrode leads were then tunneled subcutaneously and externalized laterally for future access. Following surgery, rats were housed in pairs and allowed to recover for at least 7 days. On the day of the experiment, animals were lightly anesthetized with halothane, and a lubricated latex balloon (6 cm) was inserted intra-anally into the descending colon. Animals were allowed to recover for 30 minutes, and colorectal distension (CRD) was initiated. The CRD procedure consisted of graded intensities of phasic CRD (10, 20, 40, 60 mmHg; 20 s duration; 4 min inter-stimulus interval). Visceromotor response (VMR) to CRD was quantified by measuring EMG activity. […] Animals were allowed 1 hour recovery and then SEQ ID NO:3 or vehicle was orally administered. At 1 hour following administration of SEQ ID NO:3 or vehicle CRD was repeated. […] The mean value (+/−SEM) of in vehicle and SEQ ID NO:3 treated groups (n=7 for each group) is graphically depicted in FIG. 7e.
To determine the effect of SEQ ID NO:3 in a model of water avoidance stress-induced visceral hyperalgesia, a baseline CRD was recorded and then the animals were subjected to 1 hour of water avoidance stress. For water avoidance stress, the test apparatus consisted of a Plexiglas tank with a block affixed to the center of the floor. The tank was filled with fresh room temperature water (25° C.) to within 1 cm of the top of the block. The animals were placed on the block for a period of 1 h. The sham water avoidance stress consisted in placing the rats on the same platform in a waterless container. A second CRD was performed at 24 hours post water avoidance stress. Following the second CRD, animals were allowed 1 hour recovery and then SEQ ID NO:3 or vehicle was orally administered. […]

[3] = stability in simulated gastric fluid (SGF); type: in vitro ADME; conditions: pH 1, 37° C., up to 3 h
Method: as §1
The reference control sample was diluted 10-fold (1000 μL volume) in distilled water for a final concentration of 10 μM and chilled on ice. At each time point, samples were diluted 10-fold (1000 μL volume) in distilled water for an expected concentration of 10 μM, and chilled on ice, until analysis.

## C[C@@H]1NC(=O)[C@@H]2CCCN2C(=O)[C@H](CC(N)=O)NC(=O)[C@@H]2CSSC[C@H](N)C(=O)N[C@H]3CSSC[C@H](NC1=O)C(=O)N[C@@H]([C@@H](C)O)C(=O)NCC(=O)N[C@H](C(=O)N[C@@H](Cc1ccc(O)cc1)C(=O)O)CSSC[C@H](NC(=O)[C@H](Cc1ccc(O)cc1)NC(=O)[C@H](CCC(=O)O)NC3=O)C(=O)N2 [SEQ ID NO:3] (H-CCEYCCNPACTGCY-OH; disulfide 1-6, 2-10, 5-13; N-terminus and C-terminus assumed)
Intestinal GC-C receptor
  activity in GC-C receptor activity assay: activity comparable to SEQ ID NO:4
Intestinal secretion
  intestinal secretion (guts to carcass weight ratio): increase intestinal secretion
[1]
  Charcoal transit, of the small intestine (mean±SEM): 37.3 ± 3.0%
chymotrypsin
  Cleavage of SEQ ID NO: 3 by proteolytic substance: not detectable
[2]; oral 3 μg/kg
  basal visceral nociception: had no effects
  visceromotor response to CRD 24 hours after water avoidance stress: exhibited anti-hyperalgesic properties
[2]; oral 30 μg/kg
  basal visceral nociception versus vehicle: increased basal visceral nociception
[3]
  Cleavage of SEQ ID NO: 3 by proteolytic substance: not detectable
